Assay: xn = mol fraction of the nth substance listed
Conditions: 100 kPa

OCCNCCO + CCCC[n+]1ccn(C)c1.N#C[S-]
x2 = 0
Conditions | speed of sound [m/s]
288.15 K | 1761.3
308.15 K | 1700.6
318.15 K | 1675.6

CCCC[n+]1ccn(C)c1.N#C[S-] + OCCNCCO
speed of sound [m/s]
Conditions | x1 = 0.1008 | x1 = 0.2103 | x1 = 0.2993 | x1 = 0.4027 | x1 = 0.5131 | x1 = 0.6087 | x1 = 0.7102 | x1 = 0.8009 | x1 = 0.9102 | x1 = 1
288.15 K | 1764.4 | – | 1770.6 | 1773.9 | 1777.3 | – | 1783.5 | 1786.3 | 1789.8 | 1792.6
298.15 K | 1732.8 | 1737 | – | 1744.5 | 1748.7 | 1752.4 | – | – | 1764 | 1767.5
308.15 K | 1704.9 | 1709.6 | – | 1717.8 | 1722.5 | – | 1731 | – | 1739.6 | 1743.4
318.15 K | 1680.4 | 1685.6 | 1689.8 | 1694.8 | 1700 | 1704.6 | 1709.4 | 1713.7 | – | –
